The source of these data is PMC8286348 (Biochemical and biophysical research communications, 2021).

Read-outs that look alike come from different tables or passages of the source.

The target of data set [1] is PR^S17. In words: Kinetic inhibition. It counts as biochemical, HIV-1. Conditions: read-out: Ki for PR^S17; FRET-substrate (BACHEM H-2992), 37°C, pH 5.6.
A further data set relates to PR dimerization. To be noted: relative to 1; cited from earlier work.
For data set [2] the following is noted: compared to 1; cited from earlier work.
The target in data set [3] is PR^S17. Conditions: read-out: Ki for PR^S17; clinical inhibitors; cited from earlier work.
In the next data set the target is HIV-1 protease (PR). Conditions: cited from earlier work.
In a further data set the test system is HIV-1. To be noted: read-out: antiviral IC50; MTT assay; cited from earlier work.

One may read the Ki as a measure of affinity in units of concentration, obtained from inhibition or displacement. As to `CC(C)CN(C[C@@H](O)[C@H](Cc1cc(F)cc(F)c1)NC(=O)O[C@H]1C2COC3OCC1C3C2)S(=O)(=O)c1ccc2nc(NC3CC3)sc2c1` (stereo partly shown) [Compound 3, GRL-142], the Ki at PR^S17 [1] amounted to 17 ± 1.3 nM. Also, the “fold better inhibition of PR dimerization than 1” value with PR dimerization was “around 1000 fold”. Moreover, the “CNS penetration in vitro” value in data set [2] is reported as “better CNS penetration in vitro compared to 1”.

Consider `CC(C)CN(C[C@@H](O)[C@H](Cc1ccccc1)NC(=O)O[C@H]1CCOC1)S(=O)(=O)c1ccc(N)cc1` [amprenavir], for which the Ki on PR^S17 [3] was 11 nM.

By IC50 is commonly meant the concentration that gives 50% inhibition. As to GRL-4410 [Compound 2], the Ki at PR^S17 [1] is 15.8 ± 4.8 nM; on HIV-1 protease (PR) it was 0.0029 nM. For the same molecule, in the data set on HIV-1, the IC50 is 2.4 nM.
